What all share (assay): relative viability (nuclei count vs DMSO), 5 days (fraction); higher = more cells survive
Compound in the assay “Linsitinib + Pictilisib”: C[C@]1(O)C[C@@H](c2nc(-c3ccc4ccc(-c5ccccc5)nc4c3)c3c(N)nccn32)C1 [Linsitinib] + CS(=O)(=O)N1CCN(Cc2cc3nc(-c4cccc5[nH]ncc45)nc(N4CCOCC4)c3s2)CC1 [Pictilisib] (partner 1 µM)
An outline of the steps:
(§1)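 Nuclei were stained with Hoechst during a one-step fixation (final 0.05% Triton X-100, 1% formaldehyde, 1 ug/ml Hoechst) carried out 5 days after dosing, then counted on 4× images. The cells, lung cancer lines in 1536-well plates, had been dosed by pin tool the day after seeding with one drug alone or a fixed anchor-drug dose plus five library-drug doses (not always all listed) in √10 steps. Relative viability is the nuclei count in treated wells divided by that in vehicle wells, and each value is the median of duplicate plates.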

Compound in the assay “Ispinesib + Trametinib”: Cc1ccc(C(=O)N(CCCN)[C@@H](c2nc3cc(Cl)ccc3c(=O)n2Cc2ccccc2)C(C)C)cc1 [Ispinesib] + CC(=O)Nc1cccc(-n2c(=O)n(C3CC3)c(=O)c3c(Nc4ccc(I)cc4F)n(C)c(=O)c(C)c32)c1 [Trametinib] (partner 0.02 µM)
An outline of the steps:
as §1

Compound in the assay “Ispinesib + Alpelisib”: Cc1ccc(C(=O)N(CCCN)[C@@H](c2nc3cc(Cl)ccc3c(=O)n2Cc2ccccc2)C(C)C)cc1 [Ispinesib] + Cc1nc(NC(=O)N2CCC[C@H]2C(N)=O)sc1-c1ccnc(C(C)(C)C(F)(F)F)c1 [Alpelisib] (partner 2 µM)
An outline of the steps:
as §1

Compound in the assay “Ispinesib + Dasatinib”: Cc1ccc(C(=O)N(CCCN)[C@@H](c2nc3cc(Cl)ccc3c(=O)n2Cc2ccccc2)C(C)C)cc1 [Ispinesib] + Cc1nc(Nc2ncc(C(=O)Nc3c(C)cccc3Cl)s2)cc(N2CCN(CCO)CC2)n1 [Dasatinib] (partner 0.075 µM)
The gist of the method:
as §1

Consider one cell line from the supplement of paper PMC10307832.

Turning to UMC-11, the relative viability in the assay with Linsitinib + Pictilisib (first compound 0.01 µM) turned out to be 0.786; with Linsitinib + Pictilisib (first compound 0.03162 µM) it was 0.735; with Linsitinib + Pictilisib (first compound 0.1 µM), 0.834; in the assay with Linsitinib + Pictilisib (first compound 1 µM), 0.691; with Ispinesib + Trametinib (first compound 0.001 µM), 0.685; with Ispinesib + Trametinib (first compound 0.003162 µM), 0.701. Moreover, the relative viability was found to be 0.495 with Ispinesib + Trametinib (first compound 0.01 µM); 0.238 with Ispinesib + Trametinib (first compound 0.03162 µM); 0.309 with Ispinesib + Trametinib (first compound 0.1 µM); 0.944 with Ispinesib + Alpelisib (first compound 0.001 µM); 1.09 in the assay with Ispinesib + Alpelisib (first compound 0.003162 µM); 0.99 in the assay with Ispinesib + Alpelisib (first compound 0.01 µM). For the same cell line, the relative viability with Ispinesib + Alpelisib (first compound 0.03162 µM) worked out at 0.351; with Ispinesib + Alpelisib (first compound 0.1 µM), 0.282; in the assay with Ispinesib + Dasatinib (first compound 0.001 µM) it was 0.542; with Ispinesib + Dasatinib (first compound 0.003162 µM), 0.544; with Ispinesib + Dasatinib (first compound 0.01 µM), 0.317; with Ispinesib + Dasatinib (first compound 0.03162 µM), 0.185. Besides, in the assay with Ispinesib + Dasatinib (first compound 0.1 µM), the relative viability was found to be 0.233.
